Active and inactive are the calls of the source. The calls are words filed in the database; no cut-off is given here.
What was measured:
[1] = molecular target: T1, Mitogen-activated protein kinase kinase kinase kinase 1 (Homo sapiens, UniProt Q92918); experiment: Inhibition of N-terminal DYKDDDDK recombinant human HPK1 (1 to 346 residues) expressed in Sf21 insect cells preincubated for 10 min followed by fluorescein PKC and ATP addition and measured after 90 min by Envision2104 Multilabel Reader analysis
Target sequence in this assay (Q92918 whole entry, the tested form may be a part): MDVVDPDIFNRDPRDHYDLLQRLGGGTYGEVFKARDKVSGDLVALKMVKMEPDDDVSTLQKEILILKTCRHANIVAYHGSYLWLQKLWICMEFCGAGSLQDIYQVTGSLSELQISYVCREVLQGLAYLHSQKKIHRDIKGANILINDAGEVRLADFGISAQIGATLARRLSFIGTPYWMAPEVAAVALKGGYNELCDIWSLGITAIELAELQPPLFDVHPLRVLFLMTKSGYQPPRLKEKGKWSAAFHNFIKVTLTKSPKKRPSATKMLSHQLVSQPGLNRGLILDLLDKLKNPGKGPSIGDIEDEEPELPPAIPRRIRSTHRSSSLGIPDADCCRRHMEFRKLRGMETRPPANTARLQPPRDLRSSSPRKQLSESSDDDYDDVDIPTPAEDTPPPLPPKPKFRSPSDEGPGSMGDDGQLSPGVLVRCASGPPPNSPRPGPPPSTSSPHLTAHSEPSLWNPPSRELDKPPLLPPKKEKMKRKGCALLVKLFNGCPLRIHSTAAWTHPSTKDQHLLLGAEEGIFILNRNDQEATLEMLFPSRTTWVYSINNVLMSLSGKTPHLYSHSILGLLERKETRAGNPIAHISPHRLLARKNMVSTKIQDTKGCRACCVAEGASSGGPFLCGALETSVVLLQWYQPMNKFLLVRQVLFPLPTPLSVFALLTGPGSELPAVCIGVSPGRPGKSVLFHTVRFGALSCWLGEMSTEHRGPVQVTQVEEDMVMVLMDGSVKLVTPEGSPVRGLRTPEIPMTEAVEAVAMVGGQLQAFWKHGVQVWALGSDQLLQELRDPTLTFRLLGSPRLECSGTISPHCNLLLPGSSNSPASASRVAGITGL

[2] = molecular target: T1, Mitogen-activated protein kinase kinase kinase kinase 1; experiment: Inhibition of HPK1 in human Jurkat cells assessed as reduction in SLP76 phosphorylation pretreated for 1 hr followed by anti-CD3 addition and measured after 15 min by ELISA method; assay type: cell-based
Target sequence in this assay (Q92918 whole entry, the tested form may be a part): as above

[3] = molecular target: T1, Mitogen-activated protein kinase kinase kinase kinase 1; experiment: Inhibition of HPK1 in human T cells assessed as increase in IL-2 secretion measured after 24 hrs by ELISA method; assay type: cell-based, T-cell; conditions: for Activity: T-cell
[4] = Half life in overnight fasted mouse at 1 mg/kg, iv; assay type: ADME, organism-based; conditions: in vivo
[5] = Plasma clearance in overnight fasted mouse at 1 mg/kg, iv; assay type: ADME, organism-based
[6] = AUC (0 to 24 hrs) in overnight fasted mouse at 10 mg/kg, po; assay type: ADME, organism-based; conditions: in vivo
[7] = Oral bioavailability in in overnight fasted mouse at 10 mg/kg; assay type: ADME, organism-based; conditions: in vivo
[8] = Cmax in overnight fasted mouse at 10 mg/kg, po; assay type: ADME, organism-based; conditions: in vivo
[9] = Half life in overnight fasted rat at 1 mg/kg, iv; assay type: ADME, organism-based; conditions: in vivo
[10] = Plasma Clearance in overnight fasted rat at 1 mg/kg, iv; assay type: ADME, organism-based
[11] = Cmax in overnight fasted rat at 10 mg/kg, po; assay type: ADME, organism-based; conditions: in vivo
[12] = AUC (0 to 24 hrs) in overnight fasted rat at 10 mg/kg, po; assay type: ADME, organism-based; conditions: in vivo
[13] = molecular target: T1, Mitogen-activated protein kinase kinase kinase kinase 1; experiment: Inhibition of HPK1 in human T cells assessed as increase in IL-2 secretion at 333 nM incubated for 2 hrs and measured after 24 hrs by ELISA method; assay type: cell-based; conditions: T-cell
Target sequence in this assay (Q92918 whole entry, looked up, the tested form may be a part): as the sequence (Q92918 whole entry, the tested form may be a part) above

[14] = molecular target: Voltage-gated inwardly rectifying potassium channel KCNH2 (Homo sapiens, UniProt Q12809); experiment: Inhibition of HERG expressed in HEK293 cells at -80mV holding potential incubated for 24 to 48 hrs by whole-cell patch clamp method
Voltage-gated inwardly rectifying potassium channel KCNH2, sequence (Q12809 whole entry): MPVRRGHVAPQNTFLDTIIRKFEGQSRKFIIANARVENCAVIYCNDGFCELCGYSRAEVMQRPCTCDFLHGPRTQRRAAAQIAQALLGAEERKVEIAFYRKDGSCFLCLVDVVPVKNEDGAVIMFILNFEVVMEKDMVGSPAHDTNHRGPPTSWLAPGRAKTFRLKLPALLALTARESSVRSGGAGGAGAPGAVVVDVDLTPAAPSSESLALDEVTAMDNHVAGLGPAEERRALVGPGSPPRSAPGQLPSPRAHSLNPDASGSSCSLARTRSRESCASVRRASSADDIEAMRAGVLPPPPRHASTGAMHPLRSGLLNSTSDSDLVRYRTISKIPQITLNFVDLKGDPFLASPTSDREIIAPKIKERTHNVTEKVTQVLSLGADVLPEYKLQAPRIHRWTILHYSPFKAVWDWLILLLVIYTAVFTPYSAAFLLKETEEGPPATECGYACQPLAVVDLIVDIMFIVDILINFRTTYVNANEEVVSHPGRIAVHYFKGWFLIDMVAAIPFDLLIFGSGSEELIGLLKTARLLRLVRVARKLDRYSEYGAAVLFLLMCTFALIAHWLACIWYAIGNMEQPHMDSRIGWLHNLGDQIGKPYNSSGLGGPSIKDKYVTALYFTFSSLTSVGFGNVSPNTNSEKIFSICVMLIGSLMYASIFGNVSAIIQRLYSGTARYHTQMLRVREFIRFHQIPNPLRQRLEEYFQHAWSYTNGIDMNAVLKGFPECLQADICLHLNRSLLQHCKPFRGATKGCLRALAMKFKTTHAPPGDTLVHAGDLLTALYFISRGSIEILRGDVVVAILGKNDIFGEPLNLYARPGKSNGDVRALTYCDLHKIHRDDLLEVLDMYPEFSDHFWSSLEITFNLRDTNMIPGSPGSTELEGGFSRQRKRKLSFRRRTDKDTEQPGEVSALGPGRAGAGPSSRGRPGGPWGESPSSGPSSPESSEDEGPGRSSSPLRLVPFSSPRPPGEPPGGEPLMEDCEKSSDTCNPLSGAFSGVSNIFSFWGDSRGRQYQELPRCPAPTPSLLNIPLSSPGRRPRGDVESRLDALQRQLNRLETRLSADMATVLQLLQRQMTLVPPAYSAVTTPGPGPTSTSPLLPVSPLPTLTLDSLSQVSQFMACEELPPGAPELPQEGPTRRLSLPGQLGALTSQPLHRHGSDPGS

IC50 [1] [nM] | EC50 [2] [nM] | EC50 [3] [nM] | Activity [3] | half-life [4] [min] | clearance [5] [mL/min/kg] | AUC(0-t) [6] [ng·h/mL] | bioavailability [7] [%] | Cmax [8] [ng/mL] | half-life [9] [min] | clearance [10] [mL/min/kg] | Cmax [11] [ng/mL] | AUC(0-t) [12] [ng·h/mL] | Activity [13] | Structure (SMILES) | IC50 [14] [nM]
5.4 | 14 | 187 | Dose-dependent-effect | 30 | 104 | 506 | 31 | 484 | – | – | – | – | – | O=c1[nH]ncc2c(-c3cnc4cc(F)ccn34)ccc(Nc3ccc(C4CCOCC4)c(CN4CC[C@H](F)C4)n3)c12 | –
– | – | – | – | 30 | 269 | 1350 | – | 282 | 84 | 230 | 74 | 312 | Active | CN(C)Cc1nc(Nc2ccc(-c3cnc4cc(F)ccn34)c3c2C(=O)NC3)ccc1C1CCOCC1 | 2850
> 1000 | – | – | – | – | – | – | – | – | – | – | – | – | – | Cc1cc2c(-c3cnc4cc(F)ccn34)ccc(Nc3ccc(C4CCOCC4)c(CN(C)C)n3)c2c(=O)[nH]1 | –
6.9 | 19.2 | 123 | Dose-dependent-effect | 12 | 263 | 477 | 77 | 725 | – | – | – | – | – | CN(C)Cc1nc(Nc2ccc(-c3cnc4cc(F)ccn34)c3cn[nH]c(=O)c23)ccc1C1CCOCC1 | –
34 | 55 | 373 | Dose-dependent-effect | – | – | – | – | – | – | – | – | – | – | O=c1[nH]ncc2c(-c3cnc4cc(F)ccn34)ccc(Nc3ccc(C4CCOCC4)c(CN4CC[C@@H](F)C4)n3)c12 | –
20 | 76 | 220 | Dose-dependent-effect | 24 | 159 | 892 | 86 | 308 | – | – | – | – | – | CN(C)Cc1nc(Nc2ccc(-c3cnc4cc(F)ccn34)c3cc[nH]c(=O)c23)ccc1C1CCOCC1 | –
525 | – | – | – | – | – | – | – | – | – | – | – | – | – | CN(C)Cc1nc(Nc2ccc(-c3cnc4cc(F)ccn34)c3c2C(=O)NCC3)ccc1C1CCOCC1 | –
